Laboratory results as given in US10183915B2, “Axially chiral isomers, and preparation methods therefor and pharmaceutical uses thereof” (MEDSHINE DISCOVERY INC., priority 2015, dated 2019).
Like-named read-outs stand apart in the source and are kept apart here.

Key:
[1] = Stability of solid compounds in ambient temperature (15° C., nitrogen cabinet, dark; SFC chiral purity); format: physicochemical; details: for Enantiomer Excess of the Compound: solid
Method: Test 2: Evaluation of the Stability of Solid Compounds in Ambient Temperature.
20 mg of test compound was placed into 5 mL brown transparent sealed container with stopper and stoned in the nitrogen cabinet (15° C.) in the dark. After the preset storage time, about 2 mg of test compound was accurately weighed, added into ethanol to prepare 1 mg/mL ethanol solution. The purity and chiral purity of the compound was detected by high performance liquid chromatography (HPLC) or LC-MS (LCMS) and supercritical fluid chromatography (SFC).

[2] = Stability of compounds in ethanol solutions (heated; SFC chiral purity); format: physicochemical; details: for Enantiomer Excess of Compound: ethanol solution
Excerpt: Test 3: Evaluation of the Stability of Compounds in Ethanol Solutions.
(§1) An appropriate amount of test compound was accurately weighed, added into ethanol to obtain an ethanol solution. The ethanol solution of the compound was stirred in a heated oil bath. At the end of the test, the purity and chiral purity of the compound was detected by high performance liquid chromatography (HPLC) or LC-MS (LCMS) and supercritical fluid chromatography (SFC).

[3] = Stability of compounds in DMSO solutions (heated; SFC chiral purity); format: physicochemical; details: for Enantiomer Excess of Compound: DMSO solution
Method: Example 4: Evaluation of the Stability of Compounds in DMSO Solutions
as §1, with “DMSO” for “ethanol”, “a DMSO” for “an ethanol”, “test, a sample amount of the DMSO solution was diluted with ethanol and” for “test,”

[4] = In vivo pharmacokinetic study in male Sprague-Dawley rats (IV and PO); parameters: species or system Sprague-Dawley rat; details: for Bioavailability: PO 10 mpk vs IV 2 mpk; for MRT inf: read-out: MRT0-inf
Method: Test 6: In Vivo Pharmacokinetic Study of the Test Compounds in Rats
To study the pharmacokinetic behavior of the compounds in rats and to evaluate their pharmacokinetic characteristics, their concentrations in plasma were determined by LC/MS/MS.
Appropriate amount of sample was added to a certain amount of pure water, the pH were adjusted to 7-8, to prepare to be 1 mg/mL (filtered and clarified) and 2 mg/mL (with a few particles of suspension) for IV and PO administration. • 2.4 Administration • 18 male SD rats were randomly assigned to 6 treatment groups, 3 rats in each group. Male rats were administrated IV and PO respectively after fasting overnight. The IV dosage was 2 mg/kg, the dose volume was 2 mL/kg, the PO dosage was 10 mg/kg, and the dose volume was 5 mL/kg. 3. Experimental Procedure
For IV group, 250 μL blood samples were collected before administration, and 0.083, 0.25, 0.5, 1, 2, 4, 8, 24 hours after administration, and placed in K2-EDTA anticoagulant tube, centrifuged at 3000 rpm for 15 minutes, plasma was separated, stored at −80° C. For PO Group, blood samples were collected before administration, and 0.25, 0.5, 1, 2, 4, 8, 24 hours after administration, and the other operations were the same as group IV. The content of the test compounds in the plasma of rats after administration of IV and PO were determined by LC/MS/MS method. The linear range of the assay was 6.00-18000 nM, and the lower limit of quantification was 6 nM; the plasma samples were analyzed by pretreatment with precipitated proteins.

[5] = Stability of compounds in human plasma; format: in vitro ADME; details: for Recovery (% remaining): human plasma
Method: (§2) Test 5: Evaluation of the Stability of Compounds in Rat Plasma and Human Plasma
(§3) 2. Experimental Procedures and Methods • 2.1 Prior to the experiment, the frozen plasma stored at −40° C. was thawed at room temperature and incubated in a 37° C. water bath for 5-10 min; centrifuged at 4000 rpm for 5 min, to remove impurities and lipids in the plasma. Measured the value of pH, if required, adjusted it to 7.4±0.1. • 2.2 Prepared 400 μM intermediate solution by diluting 4 μL of the working solution (10 mM) with 96 μL DMSO. • 2.3 Preparation of incubation samples: Remove 3 μL of intermediate solution (400 μM) to mix with 597 μL of blank plasma to achieve 2 μM of final concentration. Incubate each time point samples (0 min, 10 min, 30 min, 60 min, 120 min, in duplicate) at 37° C. in water bath. • 2.4 An aliquot of 100 μL samples of the final spiked plasma for each time point were removed to sample collected plates, added 400 μL of stop solution (200 ng/mL Tolbutamide plus 20 ng/mL Buspirone in 50% ACN/MeOH) to precipitate protein. Mixed thoroughly. • 2.5 Centrifuged each plate at 4,000 rpm for 20 min. Transfered an aliquot of supernatant (100 μL) from each well to sample plate and mixed with 200 μL ultra pure water. Shaked the plate at 800 rpm for about 10 min before submitting to LC-MS/MS analysis. 3. Experimental Data Analysis
(§4) The ratio of the peak area to the internal standard peak area was used to assess the decrease of the test compound to be measured. The % remaining of the test compound after incubation in plasma was calculated using following equation: % Remaining=100×(PAR at appointed incubation time/PAR at T0 time)
(§5) wherein PAR is the peak area ratio of analyte versus internal standard (IS)
(§6) The appointed incubation time points are: 0 min, 10 min, 30 min, 60 min, 120 min; T0: Samples prior to incubation.

[6] = Stability of compounds in SD rat plasma; format: in vitro ADME
Method: as §2, §3, §4, §5, §6

[7] = male SD rats, IV 2 mpk, 2 mg/kg
[8] = male SD rats, PO 10 mpk, 10 mg/kg
[9] = male, Sprague-Dawley, rat, plasma, iv, 2 mg/kg, male SD rats, IV 2 mpk
[10] = male, Sprague-Dawley, rat, plasma, po, 10 mg/kg, male SD rats, PO 10 mpk

O=C(O)CSc1nnc(Br)n1-c1ccc(C2CC2)c2ccccc12 (single isomer, unassigned) [(−)-Lesinurad]
Enantiomer Excess of the Compound ([1]; storing time 0 day): 96.5%
Enantiomer Excess of the Compound ([1]; storing time >80 days): Unchanged
Stability of the solid powder (SFC purity) ([1]; storing over 80 days): very stable
Enantiomer Excess of Compound ([2]; 37° C., 4 days): Unchanged
Enantiomer Excess of Compound ([2]; 37° C., 7 days): Unchanged
Enantiomer Excess of Compound ([2]; heating time 0 day): 96.5%
Stability in ethanol solutions (SFC purity) ([2]; heating to 37° C. and up to 70° C.): very stable
Enantiomer Excess of Compound ([3]; 80° C., 0 h): 96.5%
Enantiomer Excess of Compound ([3]; 80° C., 2 × 24 h): Unchanged
Enantiomer Excess of Compound ([3]; 80° C., 4 × 24 h): Unchanged
Enantiomer Excess of Compound ([3]; 80° C., 2 h): Unchanged
Enantiomer Excess of Compound ([3]; 80° C., 4 h): Unchanged
Enantiomer Excess of Compound ([3]; 80° C., 8 h): Unchanged
Enantiomer Excess of Compound ([3]; 80° C., 24 h): Unchanged
Enantiomer Excess of Compound ([3]; 120° C., 0 h): 96.5%
Enantiomer Excess of Compound ([3]; 120° C., 2 × 24 h): Unchanged
Enantiomer Excess of Compound ([3]; 120° C., 4 × 24 h): Unchanged
Enantiomer Excess of Compound ([3]; 120° C., 2 h): Unchanged
Enantiomer Excess of Compound ([3]; 120° C., 4 h): Unchanged
Enantiomer Excess of Compound ([3]; 120° C., 8 h): Unchanged
Enantiomer Excess of Compound ([3]; 120° C., 24 h): Unchanged
Enantiomer Excess of Compound ([3]; 160° C., 0 h): 96.5%
Enantiomer Excess of Compound ([3]; 160° C., 8 h): Unchanged
Stability in DMSO solutions (SFC purity) ([3]; heating to 80° C., 120° C. and up to 160° C.): very stable
Transformation of the atropisomer in vivo ([4]; SD rats, IV and PO): no transformation was observed
AUC0-inf [4, 7]: 14.419 ± 1.54695 µM·h
C0 [4, 7]: 9.39 ± 3.21 µM
Cl [4, 7]: 0.346 ± 0.0354 L/h/kg
MRT0-inf [4, 7]: 2.16 ± 0.07 h
T1/2 [4, 7]: 1.46 ± 0.03 h
Vdss [4, 7]: 0.75 ± 0.10 L/kg
Bioavailability ([4]; male SD rats): 65.11%
AUC0-inf [4, 8]: 46.94391 ± 11.4987 µM·h
Cmax [4, 8]: 11 ± 3.99 µM
MRT0-inf [4, 8]: 3.92 ± 0.64 h
T1/2 [4, 8]: 2.17 ± 0.10 h
Tmax [4, 8]: 2.33 ± 1.53 h
Stability after co-incubation with human plasma ([5]; 2 hours): very stable
Recovery (% remaining) ([5]; 2 μM, 37° C., 30 min): 100.4%
Recovery (% remaining) ([5]; 2 μM, 37° C., 60 min): 99.6%
recovery at 120 min, 2 μM ([5]; human, plasma, pH 7.4, human plasma, 2 μM, 37° C., 120 min, read-out: Recovery (% remaining)): 101%
Stability after co-incubation with SD-rat plasma ([6]; 2 hours): very stable
recovery at 0 min, 2 μM ([6]; SD, rat, plasma, pH 7.4, SD rat plasma, 2 μM, 37° C., 0 min, read-out: Recovery (% remaining)): 100%
recovery at 10 min, 2 μM ([6]; SD, rat, plasma, pH 7.4, SD rat plasma, 2 μM, 37° C., 10 min, read-out: Recovery (% remaining)): 102%
recovery at 30 min, 2 μM ([6]; SD, rat, plasma, pH 7.4, SD rat plasma, 2 μM, 37° C., 30 min, read-out: Recovery (% remaining)): 99.9%
recovery at 60 min, 2 μM ([6]; SD, rat, plasma, pH 7.4, SD rat plasma, 2 μM, 37° C., 60 min, read-out: Recovery (% remaining)): 97.9%
recovery at 120 min, 2 μM ([6]; SD, rat, plasma, pH 7.4, SD rat plasma, 2 μM, 37° C., 120 min, read-out: Recovery (% remaining)): 100%

O=C(O)CSc1nnc(Br)n1-c1ccc(C2CC2)c2ccccc12 (racemic) [(±)-Lesinurad, Lesinurad, reference compound]
clearance ([4]; Sprague-Dawley, rat, plasma, 2 mg/kg, male SD rats, IV 2 mpk): 0.343 ± 0.0654 L/h/kg
AUC0-inf ([4]; Sprague-Dawley, rat, plasma, 2 mg/kg, male SD rats, IV 2 mpk, read-out: AUC0-inf): 14.8 ± 3.15 µM·h
AUC0-inf ([4]; Sprague-Dawley, rat, plasma, 10 mg/kg, male SD rats, PO 10 mpk, read-out: AUC0-inf): 62.5 ± 12.1 µM·h
C0 [4, 9]: 11.6 ± 1.98 µM
half-life [4, 9]: 1.8 ± 0.65 h
MRT inf [4, 9]: 2.21 ± 0.63 h
Vd ([4]; male, Sprague-Dawley, rat, plasma, iv, 2 mg/kg, male SD rats, IV 2 mpk, read-out: Vdss): 0.76 ± 0.29 L/kg
Cmax [4, 10]: 14.5 ± 8.47 µM
half-life [4, 10]: 2.46 ± 0.18 h
Bioavailability ([4]; male, Sprague-Dawley, rat, plasma, po, 10 mg/kg, male SD rats, read-out: Bioavailability): 84.3%
MRT inf [4, 10]: 4.63 ± 1.16 h
Tmax ([4]; male, Sprague-Dawley, rat, plasma, po, 10 mg/kg, male SD rats, PO 10 mpk, read-out: Tmax): 2.33 ± 1.53 h
